Results from patent EP0589874B1, “USE OF (S)(+)-2-ETHOXY-4-[N-[1-(2-PIPERIDINOPHENYL)-3-METHYL-1-BUTYL]AMINOCARBONYLMETHYL]BENZOIC ACID FOR THE PREPARATION OF A LONGLASTING ANTIDIABETIC MEDICAMENT” (Boehringer Ingelheim Pharma KG, priority 1991, dated 1993).
Where two headings read alike, the source gives them in different places.

Columns and labels:
[1] = Plasma concentrations in volunteers after one tablet of racemate or (S)-enantiomer; format: in vivo, Menschen; conditions: human, po; for concentration at 4 h: read-out: Konzentrationen nach 4 Stunden; for concentration at 5 h: read-out: Konzentrationen nach 5 Stunden; for concentration at 6 h: read-out: Konzentrationen nach 6 Stunden; for Cmax: read-out: Maximal-Konzentrationen
Experimental: (§1) Abbildung 1 gibt hierbei die Plasma-Konzentration von AG-EE 623 ZW und AG-EE 624 ZW nach 1,0 mg i.v. AG-EE 388 ZW und Abbildung 2 die Plasma-Konzentration von AG-EE 623 ZW und AG-EE 624 ZW nach 1,0 mg p.o. (Lösung) AG-EE 388 ZW jeweils an 12 freiwilligen männlichen Probanden wieder. […] Dies wirkt sich z.B. bei Applikation einer Tablette mit 2 mg AG-EE 388 ZW bzw. einer Tablette mit 1 mg AG-EE 623 ZW an 12 bzw. 6 Probanden so aus, daß die Maximal-Konzentrationen 84 ± 25 bzw. 28 ± 18 ng/ml sowie die Konzentrationen nach 4 Stunden 19 ± 8 bzw. 0,7 ± 1,0 ng/ml, nach 5 Stunden 13 ± 6 bzw. 0,3 ± 0,7 ng/ml und nach 6 Stunden 10 ± 6 bzw. 0,3 ± 0,7 ng/ml betragen.

Ratten = assay: Acute oral toxicity in rats, single dose, 14 days observation; format: in vivo
weiblichen Ratten = assay: Blood-glucose-lowering effect in female rats; format: in vivo, Ratte; conditions: for blutzuckersenkende Wirkung: female rats
From the text: Die beiden Enantiomeren dieser Verbindung, nämlich (S)(+)-2-Äthoxy-4-[N-[1-(2-piperidino-phenyl)-3-methyl-1-butyl] aminocarbonylmethyl]-benzoesäure (Code-Nr.: AG-EE 623 ZW) und (R)(-)-2-Äthoxy-4-[N-[1-(2-piperidino-phenyl)-3-methyl-1-butyl]aminocarbonylmethyl]-benzoesäure (Code-Nr.: AG-EE 624 ZW), wurden auf ihre blutzuckersenkende Wirkung an weiblichen Ratten geprüft.

[2] = format: in vivo, Menschen
From the text: Auf Grund dieser Ergebnisse an der Ratte erscheint für den Menschen die ausschließliche Verwendung von AG-EE 623 ZW geboten, wodurch die Dosis im Vergleich zur AG-EE 388 ZW-Dosis um 50 % reduziert werden kann. […] Darüber hinaus wurde jedoch bei den Human-Studien gefunden, daß AG-EE 623 ZW überraschende pharmakokinetische Eigenschaften aufweist, die auf Grund der AG-EE 388 ZW-Daten nicht vorhersehbar waren. AG-EE 623 ZW zeigt somit überraschende therapeutische Vorteile gegenüber dem Racemat AG-EE 388 ZW.

[3] = set-up: species or system Menschen; conditions: in vivo
Experimental: as §1

[4] = tablet with 1 mg AG-EE 623 ZW, 6 volunteers
[5] = tablet with 2 mg AG-EE 388 ZW, 12 volunteers

| concentration at 4 h [1, 5] | concentration at 5 h [1, 5] | concentration at 6 h [1, 5] | Cmax [1, 5] | Compound | concentration at 4 h [1, 4] | concentration at 5 h [1, 4] | concentration at 6 h [1, 4] | Cmax [1, 4] | Toxizität (Ratten; rats, 1000 mg/kg p.o.) | verstorbene Tiere (Ratten; single 1000 mg/kg p.o., suspension in 1% methylcellulose, 5 male and 5 female rats, 14 days) | blutzuckersenkende Wirkung (weiblichen Ratten) | Dauer der Wirkung (Wirkung hält an) (weiblichen Ratten; rat) | Eintritt der blutzuckersenkenden Wirkung ([2]; human) | Wirkungsdauer ([2]; human) | Abfall der Spiegel ([2]; in vivo) | Plasmaspiegel in Relation zur erzielten Blutzuckersenkung ([2]; in vivo) | Elimination (Plasma-Konzentration) [3] | Plasma-Konzentrationen nach Racemat-Gabe [3] |
| --- | --- | --- | --- | --- | --- | --- | --- | --- | --- | --- | --- | --- | --- | --- | --- | --- | --- | --- |
| – | – | – | – | CCOc1cc(CC(=O)N[C@@H](CC(C)C)c2ccccc2N2CCCCC2)ccc1C(=O)O [AG-EE 623 ZW, (S)(+)-2-Äthoxy-4-[N-[1-(2-piperidino-phenyl)-3-methyl-1-butyl]aminocarbonylmethyl]-benzoesäure] | 0.7 ng/mL | 0.3 ng/mL | 0.3 ng/mL | 28 ± 18 ng/mL | praktisch untoxisch | kein Tier | wirksame Enantiomere | > 6 Stunden | rascher ein als nach AG-EE 388 ZW-Gabe | relativ lange Wirkungsdauer | fallen rascher gegen null als die AG-EE 388 ZW-Spiegel | wesentlich niedrigere Plasmaspiegel | wesentlich schneller als das unwirksame Enantiomere, AG-EE 624 ZW, eliminiert | – |
| 19 ± 8 ng/mL | 13 ± 6 ng/mL | 10 ± 6 ng/mL | 84 ± 25 ng/mL | CCOc1cc(CC(=O)NC(CC(C)C)c2ccccc2N2CCCCC2)ccc1C(=O)O (racemic) [AG-EE 388 ZW, 2-Äthoxy-4-[N-[1-(2-piperidino-phenyl)-3-methyl-1-butyl]aminocarbonylmethyl]-benzoesäure, reference compound] | – | – | – | – | – | – | – | – | – | – | – | – | – | – |
| – | – | – | – | CCOc1cc(CC(=O)N[C@H](CC(C)C)c2ccccc2N2CCCCC2)ccc1C(=O)O [AG-EE 624 ZW, (R)(-)-2-Äthoxy-4-[N-[1-(2-piperidino-phenyl)-3-methyl-1-butyl]aminocarbonylmethyl]-benzoesäure] | – | – | – | – | – | – | unwirksame Enantiomere | – | – | – | – | – | – | in unerwartet höheren Maximal- und Dauer-Spiegeln anwesend |
